US20250313546A1, “NUCLEIC ACID BINDERS” (UNIVERSITY OF STRATHCLYDE, priority 2022, published 2025)
Values after ≈ are worked out from the molar mass of the structure shown. Like-named read-outs stand apart in the source and are kept apart here.

Tests used:
[1] = system: Staphylococcus aureus (ATCC 43300); assay: Antibacterial MIC, broth microdilution (CLSI); format: cell-based; conditions: Staphylococcus aureus, ATCC43300; read-out: MIC80 S. aureus
[2] = system: Enterococcus faecalis (ATCC 51299); assay: Antibacterial MIC, broth microdilution (CLSI); format: cell-based; conditions: Enterococcus faecalis, ATCC51299; read-out: MIC80 E. faecalis
[3] = system: Escherichia coli (ATCC 25922); assay: Antibacterial MIC, broth microdilution (CLSI); format: cell-based; conditions: Escherichia coli, ATCC25922; read-out: MIC80 E. coli
[4] = system: Aspergillus fumigatus; assay: Expanded set of filamentous fungi, MIC broth microdilution (CLSI); format: cell-based
[5] = system: Fusarium oxysporum; assay: as above; format: cell-based; conditions: MIC at 50% inhibition
[6] = system: Fusarium solani; assay: as above; format: cell-based; conditions: MIC at 50% inhibition
[7] = system: Scedosporium spp.; assay: as above; format: cell-based
[8] = system: Lomentospora prolificans; assay: as above; format: cell-based; conditions: isolate S2, MIC at 50% inhibition
[9] = system: Paecilomyces variotii; assay: as above; format: cell-based; conditions: isolate MYA-3630, MIC at 50% inhibition
[10] = system: Rhizopus arrhizus; assay: as above; format: cell-based
[11] = system: Blastomyces dermatitidis; assay: as above; format: cell-based
[12] = system: Candida parapsilosis; assay: Expanded set of yeasts, MIC broth microdilution (CLSI); format: cell-based; conditions: MIC at 50% inhibition; for MIC50: Lodderomyces parapsilosis
[13] = system: C. albicans; assay: as above; format: cell-based; conditions: MIC at 50% inhibition; for MIC50: Candida albicans
[14] = system: C. guilliiermondii; assay: as above; format: cell-based; conditions: MIC at 50% inhibition
[15] = system: Genomic double stranded DNA (salmon); assay: Fluorescence intercalator displacement (FID) assay, SYBR-safe probe; conditions: 20 μM compound, 30° C., lower % = stronger binding
Summary of the method: (§1)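 Compound at 20 μM mixed with 3.76 ng/mL polyAU dsRNA or salmon genomic dsDNA and 12500-fold diluted SybrSafe in 1 mM phosphate buffer pH 7.4, then heated to 30 °C and fluorescence read. Reduction is expressed as normalised %, with nucleic acid plus probe as maximum and probe alone as minimum.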

[16] = system: PolyAU double stranded RNA; assay: as above; conditions: 20 μM compound, 30° C., lower % = stronger binding
Summary of the method: as §1

[17] = system: C. neoformans (F10025); conditions: Cryptococcus neoformans, read-out: MIC99 C. neoformans
[18] = system: A. fumigatus A1160 (MFIG001); conditions: Aspergillus fumigatus, read-out: MIC99 A. fumigatus A1160
[19] = system: Rhizopus arrhizus (NEQAS12.35321); conditions: read-out: MIC99 Rhizopus arrhizus
[20] = system: Candida glabrata (ACPF3309); conditions: Nakaseomyces glabratus, read-out: MIC99 Candida glabrata
Procedure: (§2) The Minimum Inhibitory Concentration (MIC, at 99% inhibition) of the compounds was determined using the broth microdilution method as recommended by EUCAST (EUCAST Definitive Document E.DEF 9.3.2, Method for the determination of broth dilution minimum inhibitory concentrations of antifungal agents for conidia forming moulds and EUCAST Definitive Document E.DEF 7.3.2 Method for the determination of broth dilution minimum inhibitory concentrations of antifungal agents for yeasts).

[21] = system: Scedosporium prolificans (F2746); conditions: Lomentospora prolificans, read-out: MIC99 Scedosporium prolificans
Procedure: as §2

**Q.** With `C/N=C(\CCNC(=O)c1cc(NC(=O)c2cc(NC(=O)c3ccc(/C=C/c4ccc(N(C)C)cc4)nc3)cn2C)cn1C)NC` [Ia8, 6-((E)-4-(dimethylamino)styryl)-N-(1-methyl-5-((1-methyl-5-(((E)-3-(methylamino)-3-(methylimino)propyl)carbamoyl)-1H-pyrrol-3-yl)carbamoyl)-1H-pyrrol-3-yl)nicotinamide] as the molecule, how does the MIC80 [1] read?
**A.** 5 to 25 µM (≈ 3.05 to 15.2 µg/mL)

**Q.** What about the MIC80 [2] of the same molecule?
**A.** 25 to 100 µM (≈ 15.2 to 61 µg/mL)

**Q.** What about the MIC80 [3] of the same molecule?
**A.** > 100 µM

**Q.** And the MIC50 ([4]; isolate AF293, MIC at 50% inhibition)?
**A.** 1 to 8 µg/mL (≈ 1.64 to 13.1 µM)

**Q.** And the MIC50 ([4]; isolate DI15-106, MIC at 50% inhibition)?
**A.** 1 to 8 µg/mL (≈ 1.64 to 13.1 µM)

**Q.** And the MIC50 ([4]; isolate DI15-116, MIC at 50% inhibition)?
**A.** 1 to 8 µg/mL (≈ 1.64 to 13.1 µM)

**Q.** What about the MIC50 ([4]; isolate DI19-187, MIC at 50% inhibition) of the same molecule?
**A.** 1 to 8 µg/mL (≈ 1.64 to 13.1 µM)

**Q.** And the MIC50 ([4]; isolate DI19-230, MIC at 50% inhibition)?
**A.** 1 to 8 µg/mL (≈ 1.64 to 13.1 µM)

**Q.** And the MIC50 ([4]; isolate DI19-231, MIC at 50% inhibition)?
**A.** 1 to 8 µg/mL (≈ 1.64 to 13.1 µM)

**Q.** What about the MIC50 ([4]; isolate DI19-232, MIC at 50% inhibition) of the same molecule?
**A.** 1 to 8 µg/mL (≈ 1.64 to 13.1 µM)

**Q.** And the MIC50 ([4]; isolate DI19-233, MIC at 50% inhibition)?
**A.** 1 to 8 µg/mL (≈ 1.64 to 13.1 µM)

**Q.** What about the MIC50 ([4]; isolate DI19-234, MIC at 50% inhibition) of the same molecule?
**A.** 1 to 8 µg/mL (≈ 1.64 to 13.1 µM)

**Q.** And the MIC50 ([4]; isolate DI19-236, MIC at 50% inhibition)?
**A.** 1 to 8 µg/mL (≈ 1.64 to 13.1 µM)

**Q.** What about the MIC50 ([4]; isolate DI19-237, MIC at 50% inhibition) of the same molecule?
**A.** 1 to 8 µg/mL (≈ 1.64 to 13.1 µM)

**Q.** And the MIC50 ([4]; isolate DI20-95, MIC at 50% inhibition)?
**A.** 1 to 8 µg/mL (≈ 1.64 to 13.1 µM)

**Q.** And the MIC50 ([4]; isolate DI20-103, MIC at 50% inhibition)?
**A.** 1 to 8 µg/mL (≈ 1.64 to 13.1 µM)

**Q.** What about the MIC50 ([5]; Fusarium oxysporum, isolate F2) of the same molecule?
**A.** ≤ 1 µg/mL

**Q.** What about the “MIC50 Fusarium oxysporum” value ([5]; isolate F3) of the same molecule?
**A.** *** (*** means MIC50 <= 1 μg/mL)

**Q.** And the MIC50 ([6]; Fusarium solani, isolate F4)?
**A.** ≤ 1 µg/mL

**Q.** And the “MIC50 Fusarium solani” value ([6]; isolate DI19-284)?
**A.** *** (*** means MIC50 <= 1 μg/mL)

**Q.** What about the MIC50 ([7]; isolate S1, MIC at 50% inhibition) of the same molecule?
**A.** 1 to 8 µg/mL (≈ 1.64 to 13.1 µM)

**Q.** And the MIC50 ([7]; isolate S3, MIC at 50% inhibition)?
**A.** 1 to 8 µg/mL (≈ 1.64 to 13.1 µM)

**Q.** What about the MIC50 [8] of the same molecule?
**A.** 1 to 8 µg/mL (≈ 1.64 to 13.1 µM)

**Q.** What about the MIC50 [9] of the same molecule?
**A.** 1 to 8 µg/mL (≈ 1.64 to 13.1 µM)

**Q.** What about the MIC50 ([10]; isolate 99-880, MIC at 50% inhibition) of the same molecule?
**A.** 1 to 8 µg/mL (≈ 1.64 to 13.1 µM)

**Q.** What about the MIC50 ([10]; isolate 99-892, MIC at 50% inhibition) of the same molecule?
**A.** 1 to 8 µg/mL (≈ 1.64 to 13.1 µM)

**Q.** What about the MIC50 ([10]; isolate RA3, MIC at 50% inhibition) of the same molecule?
**A.** 1 to 8 µg/mL (≈ 1.64 to 13.1 µM)

**Q.** And the MIC50 ([11]; isolate BD1, MIC at 50% inhibition)?
**A.** 1 to 8 µg/mL (≈ 1.64 to 13.1 µM)

**Q.** And the MIC50 ([11]; isolate BD2, MIC at 50% inhibition)?
**A.** 1 to 8 µg/mL (≈ 1.64 to 13.1 µM)

**Q.** And the MIC50 ([11]; isolate BD3, MIC at 50% inhibition)?
**A.** 1 to 8 µg/mL (≈ 1.64 to 13.1 µM)

**Q.** What about the MIC50 ([12]; ATCC22019, isolate ATCC 22019, read-out: MIC50 Candida parapsilosis) of the same molecule?
**A.** 1 to 8 µg/mL (≈ 1.64 to 13.1 µM)

**Q.** And the MIC50 ([12]; isolate CP1, read-out: MIC50 C. parapsilosis)?
**A.** 1 to 8 µg/mL (≈ 1.64 to 13.1 µM)

**Q.** What about the “MIC50 C. parapsilosis” value ([12]; isolate CP2) of the same molecule?
**A.** ** (** means 1 μg/mL < MIC50 <= 8 μg/mL)

**Q.** And the “MIC50 C. parapsilosis” value ([12]; isolate CP3)?
**A.** ** (** means 1 μg/mL < MIC50 <= 8 μg/mL)

**Q.** What about the MIC50 ([13]; isolate CA3) of the same molecule?
**A.** 1 to 8 µg/mL (≈ 1.64 to 13.1 µM)

**Q.** What about the MIC50 ([13]; isolate SC5314) of the same molecule?
**A.** 1 to 8 µg/mL (≈ 1.64 to 13.1 µM)

**Q.** And the “MIC50 C. albicans” value ([13]; isolate CA90028)?
**A.** ** (** means 1 μg/mL < MIC50 <= 8 μg/mL)

**Q.** What about the MIC50 ([14]; isolate Cgui1) of the same molecule?
**A.** 1 to 8 µg/mL (≈ 1.64 to 13.1 µM)

**Q.** What about the “MIC50 C. guilliiermondii” value ([14]; isolate Cgui2) of the same molecule?
**A.** ** (** means 1 μg/mL < MIC50 <= 8 μg/mL)

**Q.** And the “MIC50 C. guilliiermondii” value ([14]; isolate Cgui3)?
**A.** ** (** means 1 μg/mL < MIC50 <= 8 μg/mL)

**Q.** What about the “% Normalised Fluorescence with gDNA” value [15] of the same molecule?
**A.** 4%

**Q.** What about the “% Normalised Fluorescence with polyAU RNA” value [16] of the same molecule?
**A.** 9%

**Q.** And the MIC99 [17]?
**A.** 5 to 25 µg/mL (≈ 8.2 to 41 µM)

**Q.** What about the MIC99 [18] of the same molecule?
**A.** 5 to 25 µg/mL (≈ 8.2 to 41 µM)

**Q.** And the MIC99 [19]?
**A.** 5 to 25 µg/mL (≈ 8.2 to 41 µM)

**Q.** And the MIC99 [20]?
**A.** 5 to 25 µg/mL (≈ 8.2 to 41 µM)

**Q.** What about the MIC99 [21] of the same molecule?
**A.** 5 to 25 µg/mL (≈ 8.2 to 41 µM)
